Target: T1, Acas RegA (cAMP phosphodiesterase RegA) (Acanthamoeba castellanii, UniProt L7WMY9)
T1 construct: 621 aa protein from full cDNA, N-terminal hexahis-tag, expressed in E. coli
Assay: inhibition of 3H-cAMP hydrolysis by purified RegA
Assay type: biochemical

T1 sequence (L7WMY9 entry or part of it): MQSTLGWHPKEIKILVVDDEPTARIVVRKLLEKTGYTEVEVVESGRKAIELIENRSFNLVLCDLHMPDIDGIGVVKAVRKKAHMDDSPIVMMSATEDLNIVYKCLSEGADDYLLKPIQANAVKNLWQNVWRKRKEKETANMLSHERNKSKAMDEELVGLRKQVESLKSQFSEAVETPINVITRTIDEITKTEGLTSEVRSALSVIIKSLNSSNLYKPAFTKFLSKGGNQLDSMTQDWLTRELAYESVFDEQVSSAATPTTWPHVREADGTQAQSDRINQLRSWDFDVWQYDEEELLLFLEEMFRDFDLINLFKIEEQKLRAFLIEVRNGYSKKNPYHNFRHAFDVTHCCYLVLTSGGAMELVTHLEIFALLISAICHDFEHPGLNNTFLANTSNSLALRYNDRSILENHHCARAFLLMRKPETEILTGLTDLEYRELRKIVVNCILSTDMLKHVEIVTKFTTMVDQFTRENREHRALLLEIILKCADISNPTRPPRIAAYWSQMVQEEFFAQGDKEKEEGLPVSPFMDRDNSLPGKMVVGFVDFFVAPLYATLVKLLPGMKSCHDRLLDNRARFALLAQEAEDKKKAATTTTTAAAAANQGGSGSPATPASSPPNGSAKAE

| SMILES | IC50 [µM] |
| --- | --- |
| COc1cc2c(cc1OC)-c1c/c(=N\c3c(C)cc(C)cc3C)n(C)c(=O)n1CC2 [trequinsin] | 30 |
| Clc1cccc(Nc2nnc(-c3ccccc3)c3ccccc23)c1 [MY-5445] | 400 |
| OCCN(CCO)c1nc(N2CCCCC2)c2nc(N(CCO)CCO)nc(N3CCCCC3)c2n1 [dipyridamole] | 12 |
